Laboratory results as given in patent US20230393140A1, “BINDING ASSAYS INVOLVING A PLURALITY OF SYNTHETIC COMPOUNDS, TARGETS, AND COUNTER TARGETS” (SRI International, priority 2020, published 2023).
Numbered stars: 1 amine (or outer) side, 2 acyl side, 3 side chain; on linkers, the order of the positions; unused ones are H or OH. Square brackets hold non-standard residues; d marks the D form. Peptide text beside a SMILES is read from it. * marks the point of attachment. 5FAM = O=C1OC2(c3ccc(O)cc3Oc3cc(O)ccc32)c2ccc(C(=O)*)cc21; NHCH2C6H4(4-CH2CONH2) = NC(=O)Cc1ccc(CN*)cc1; X1 = O=C(Cc1ccc(CN[*:1])cc1)[*:2]

These compounds were tested against T1, ASGPR (Homo sapiens, UniProt P07306) (assay: MST binding affinity of resynthesized NNP hits to ASGPR). Conditions: read-out: KD (nM) [95% conf. int]; MST; NNP1 library hit; target ASGPR; one-site binding model.
T1 construct: purchased R&D Systems, Inc. 4394-AS
T1 sequence (P07306 1-291): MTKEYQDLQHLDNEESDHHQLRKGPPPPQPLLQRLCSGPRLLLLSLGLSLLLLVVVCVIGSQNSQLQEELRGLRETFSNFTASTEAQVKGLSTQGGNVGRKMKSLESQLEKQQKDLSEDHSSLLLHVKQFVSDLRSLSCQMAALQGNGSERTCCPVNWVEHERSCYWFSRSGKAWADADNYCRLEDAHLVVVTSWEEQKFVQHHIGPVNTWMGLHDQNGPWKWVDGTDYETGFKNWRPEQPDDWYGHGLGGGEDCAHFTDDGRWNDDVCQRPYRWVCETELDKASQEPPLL
Experimental: Hit binding affinity to various targets were determined using Microscale Thermophoresis (MST). MST experiments were performed on a Monolith NT.115pico (NanoTemper Technologies GmbH, Munich, Germany). Measurements were performed at room temperature, in triplicate with incubation periods of 15, 30 and 45 minutes. […] Targets were labeled using Nanotemper Monolith 2nd Generation Protein Labeling Kits. RED-MALEIMIDE (Maleimide-647-dye) labeling kit was used for K-Ras and RED-NHS (NHS-647-dye) labeling kit was used for IL-6, IL-6R, TNFα and ASGPR. The buffer for the ASGPR contained 20 mM HEPES pH 7.4, 150 mM NaCl, 10 mM MgCl2, 2 mM CaCl2, 0.05% Pluronic F-127, and 1 mM DTT; for IL-6 contained 20 mM HEPES pH 7.4, 150 mM KCl, 10 mM MgCl2, and 0.1% Pluronic F-127; for the soluble IL-6 receptor 20 mM HEPES pH 7.4, 150 mM NaCl, 10 mM MgCl2, and 0.05% Tween-20; for K-Ras 20 mM HEPES pH 7.4, 150 mM NaCl, 10 mM MgCl2, 0.05% Tween-20 and 1 mM DTT; for TNFα 10 mM HEPES pH 7.4, 150 mM NaCl, 10 mM MgCl2, 0.05% Polysorbate-20. Triplicate data was analyzed using MO.AffinityAnalysis software (NanoTemper Technologies GmbH).

Question: How did the Kd turn out when CC(C)C[C@H](NC(=O)[C@@H](CCCNC(=N)N)NC(=O)[C@@H](CCCCN)NC(=O)[C@@H](CCC(=O)O)NC(=O)[C@@H](Cc1ccccc1)NC(=O)Cc1ccc(CNC(=O)[C@H](Cc2ccccc2)NC(=O)[C@@H](CO)NC(=O)[C@@H](CCC(=O)O)NC(=O)[C@H]2CCCN2C(=O)[C@@H](CC(C)C)NC(=O)c2ccc3c(c2)C(=O)OC32c3ccc(O)cc3Oc3cc(O)ccc32)cc1)C(=O)NCc1ccc(CC(=O)NCC(=O)N2CCC[C@@H]2C(=O)N[C@H](CCCNC(=N)N)C(=O)N[C@H](CO)C(=O)N[C@@H](Cc2ccccc2)C(=O)NCc2ccc(CC(=O)N3CCC[C@@H]3C(=O)N[C@H](CCCCN)C(=O)N[C@H](Cc3ccc(O)cc3)C(=O)N[C@H](CCCNC(=N)N)C(=O)N[C@@H](Cc3ccccc3)C(=O)NCc3ccc(CC(=O)N[C@H](CCCNC(=N)N)C(=O)N[C@H](Cc4ccccc4)C(=O)N4CCC[C@@H]4C(=O)N[C@@H](C(=O)NCC(=O)NCc4ccc(CC(=O)N[C@H](CC(C)C)C(=O)N5CCC[C@@H]5C(=O)N[C@H](CCCNC(=N)N)C(=O)N[C@@H](C(=O)NCC(=O)NCc5ccc(CC(N)=O)cc5)[C@H](C)O)cc4)C(C)C)cc3)cc2)cc1 [ASGPR-9-3] (5FAM-[dL][dP][dE][dS]F[X1][dF][dE][dK][dR]L[X1]G[dP][dR][dS]F[X1][dP][dK][dY][dR]F[X1][dR][dF][dP][dV]G[X1][dL][dP][dR][dT]G-{NHCH2C6H4(4-CH2CONH2)}) was run?
Answer: The Kd was 330 nM.

Question: How did the Kd turn out when CC(C)C[C@H](NC(=O)[C@@H](CCCNC(=N)N)NC(=O)[C@@H](CCCCN)NC(=O)[C@@H](CCC(=O)O)NC(=O)[C@@H](Cc1ccccc1)NC(=O)Cc1ccc(CNC(=O)[C@H](Cc2ccccc2)NC(=O)[C@@H](CO)NC(=O)[C@@H](CCC(=O)O)NC(=O)[C@H]2CCCN2C(=O)[C@@H](CC(C)C)NC(=O)c2ccc3c(c2)C(=O)OC32c3ccc(O)cc3Oc3cc(O)ccc32)cc1)C(=O)NCc1ccc(CC(=O)N[C@H](Cc2c[nH]cn2)C(=O)N[C@H](CO)C(=O)N2CCC[C@@H]2C(=O)N[C@H](CCCNC(=N)N)C(=O)N[C@H](C(=O)NCc2ccc(CC(=O)N3CCC[C@@H]3C(=O)N[C@H](CCCCN)C(=O)N[C@H](Cc3ccc(O)cc3)C(=O)N[C@H](CCCNC(=N)N)C(=O)N[C@@H](Cc3ccccc3)C(=O)NCc3ccc(CC(=O)N[C@H](CCCNC(=N)N)C(=O)N[C@H](Cc4ccccc4)C(=O)N4CCC[C@@H]4C(=O)N[C@@H](C(=O)NCC(=O)NCc4ccc(CC(=O)N[C@H](CC(C)C)C(=O)N5CCC[C@@H]5C(=O)N[C@H](CCCNC(=N)N)C(=O)N[C@@H](C(=O)NCC(=O)NCc5ccc(CC(N)=O)cc5)[C@H](C)O)cc4)C(C)C)cc3)cc2)C(C)C)cc1 [ASGPR-9-7] (5FAM-[dL][dP][dE][dS]F[X1][dF][dE][dK][dR]L[X1][dH][dS][dP][dR]V[X1][dP][dK][dY][dR]F[X1][dR][dF][dP][dV]G[X1][dL][dP][dR][dT]G-{NHCH2C6H4(4-CH2CONH2)}) was run?
Answer: Its Kd is 150 nM.

Question: Which Kd does the source give for CC(C)C[C@H](NC(=O)[C@@H](Cc1c[nH]cn1)NC(=O)[C@@H](CC(C)C)NC(=O)[C@H]1CCCN1C(=O)[C@@H](CC(N)=O)NC(=O)Cc1ccc(CNC(=O)[C@H](Cc2ccccc2)NC(=O)[C@@H](Cc2c[nH]cn2)NC(=O)[C@@H](CCCNC(=N)N)NC(=O)[C@@H](CC(N)=O)NC(=O)[C@@H](Cc2ccc(O)cc2)NC(=O)Cc2ccc(CNC(=O)[C@H](CC(C)C)NC(=O)[C@@H](CCCNC(=N)N)NC(=O)[C@@H](CCCCN)NC(=O)[C@@H](CCC(=O)O)NC(=O)[C@@H](Cc3ccccc3)NC(=O)Cc3ccc(CNC(=O)[C@H](Cc4ccccc4)NC(=O)[C@@H](CO)NC(=O)[C@@H](CCC(=O)O)NC(=O)[C@H]4CCCN4C(=O)[C@@H](CC(C)C)NC(=O)c4ccc5c(c4)C(=O)OC54c5ccc(O)cc5Oc5cc(O)ccc54)cc3)cc2)cc1)C(=O)NCc1ccc(CC(=O)N[C@H](CCCNC(=N)N)C(=O)N[C@H](Cc2ccccc2)C(=O)N2CCC[C@@H]2C(=O)N[C@@H](C(=O)NCC(=O)NCc2ccc(CC(=O)N[C@H](CC(C)C)C(=O)N3CCC[C@@H]3C(=O)N[C@H](CCCNC(=N)N)C(=O)N[C@@H](C(=O)NCC(=O)NCc3ccc(CC(N)=O)cc3)[C@H](C)O)cc2)C(C)C)cc1 [ASGPR-9-10] (5FAM-[dL][dP][dE][dS]F[X1][dF][dE][dK][dR]L[X1][dY][dN][dR][dH]F[X1][dN][dP][dL][dH]L[X1][dR][dF][dP][dV]G[X1][dL][dP][dR][dT]G-{NHCH2C6H4(4-CH2CONH2)}) here?
Answer: The Kd was 97 nM.

Question: With CC(C)C[C@H](NC(=O)[C@@H](Cc1c[nH]c2ccccc12)NC(=O)[C@@H](CCC(=O)O)NC(=O)[C@@H](CO)NC(=O)[C@@H](CCCNC(=N)N)NC(=O)Cc1ccc(CNC(=O)[C@H](Cc2ccccc2)NC(=O)[C@@H](Cc2c[nH]cn2)NC(=O)[C@@H](CCCNC(=N)N)NC(=O)[C@@H](CC(N)=O)NC(=O)[C@@H](Cc2ccc(O)cc2)NC(=O)Cc2ccc(CNC(=O)[C@H](CC(C)C)NC(=O)[C@@H](CCCNC(=N)N)NC(=O)[C@@H](CCCCN)NC(=O)[C@@H](CCC(=O)O)NC(=O)[C@@H](Cc3ccccc3)NC(=O)Cc3ccc(CNC(=O)[C@H](Cc4ccccc4)NC(=O)[C@@H](CO)NC(=O)[C@@H](CCC(=O)O)NC(=O)[C@H]4CCCN4C(=O)[C@@H](CC(C)C)NC(=O)c4ccc5c(c4)C(=O)OC54c5ccc(O)cc5Oc5cc(O)ccc54)cc3)cc2)cc1)C(=O)NCc1ccc(CC(=O)N[C@H](CCCNC(=N)N)C(=O)N[C@H](Cc2ccccc2)C(=O)N2CCC[C@@H]2C(=O)N[C@@H](C(=O)NCC(=O)NCc2ccc(CC(=O)N[C@H](CC(C)C)C(=O)N3CCC[C@@H]3C(=O)N[C@H](CCCNC(=N)N)C(=O)N[C@@H](C(=O)NCC(=O)NCc3ccc(CC(N)=O)cc3)[C@H](C)O)cc2)C(C)C)cc1 [ASGPR-9-11] (5FAM-[dL][dP][dE][dS]F[X1][dF][dE][dK][dR]L[X1][dY][dN][dR][dH]F[X1][dR][dS][dE][dW]L[X1][dR][dF][dP][dV]G[X1][dL][dP][dR][dT]G-{NHCH2C6H4(4-CH2CONH2)}) as the compound, how does the Kd read?
Answer: Its Kd is 0.22 nM.

Question: Which Kd does the source give for CC(C)C[C@H](NC(=O)[C@@H](CCCNC(=N)N)NC(=O)[C@@H](CCCCN)NC(=O)[C@@H](CCC(=O)O)NC(=O)[C@@H](Cc1ccccc1)NC(=O)Cc1ccc(CNC(=O)[C@H](Cc2ccccc2)NC(=O)[C@@H](CO)NC(=O)[C@@H](CCC(=O)O)NC(=O)[C@H]2CCCN2C(=O)[C@@H](CC(C)C)NC(=O)c2ccc3c(c2)C(=O)OC32c3ccc(O)cc3Oc3cc(O)ccc32)cc1)C(=O)NCc1ccc(CC(=O)N[C@H](Cc2ccc(O)cc2)C(=O)N[C@H](CC(N)=O)C(=O)N[C@H](CCCNC(=N)N)C(=O)N[C@H](Cc2c[nH]cn2)C(=O)N[C@@H](Cc2ccccc2)C(=O)NCc2ccc(CC(=O)N[C@H](Cc3ccc(O)cc3)C(=O)N[C@@H](C(=O)N3CCC[C@@H]3C(=O)N[C@H](CCCNC(=N)N)C(=O)N[C@@H](C)C(=O)NCc3ccc(CC(=O)N[C@H](CCCNC(=N)N)C(=O)N[C@H](Cc4ccccc4)C(=O)N4CCC[C@@H]4C(=O)N[C@@H](C(=O)NCC(=O)NCc4ccc(CC(=O)N[C@H](CC(C)C)C(=O)N5CCC[C@@H]5C(=O)N[C@H](CCCNC(=N)N)C(=O)N[C@@H](C(=O)NCC(=O)NCc5ccc(CC(N)=O)cc5)[C@H](C)O)cc4)C(C)C)cc3)[C@H](C)O)cc2)cc1 [ASGPR-9-12] (5FAM-[dL][dP][dE][dS]F[X1][dF][dE][dK][dR]L[X1][dY][dN][dR][dH]F[X1][dY][dT][dP][dR]A[X1][dR][dF][dP][dV]G[X1][dL][dP][dR][dT]G-{NHCH2C6H4(4-CH2CONH2)}) here?
Answer: The Kd was 6 nM.

Question: With CC(C)C[C@H](NC(=O)CNC(=O)[C@@H](Cc1c[nH]cn1)NC(=O)[C@@H](CCCNC(=N)N)NC(=O)[C@H]1CCCN1C(=O)Cc1ccc(CNC(=O)[C@H](Cc2ccccc2)NC(=O)[C@@H](CO)NC(=O)[C@@H](CCCNC(=N)N)NC(=O)[C@H]2CCCN2C(=O)CNC(=O)Cc2ccc(CNC(=O)[C@H](C)NC(=O)[C@@H](CCCNC(=N)N)NC(=O)[C@H]3CCCN3C(=O)[C@H](NC(=O)CNC(=O)Cc3ccc(CNC(=O)[C@H](Cc4ccccc4)NC(=O)[C@@H](CO)NC(=O)[C@@H](CCC(=O)O)NC(=O)[C@H]4CCCN4C(=O)[C@@H](CC(C)C)NC(=O)c4ccc5c(c4)C(=O)OC54c5ccc(O)cc5Oc5cc(O)ccc54)cc3)C(C)C)cc2)cc1)C(=O)NCc1ccc(CC(=O)N[C@H](CCCNC(=N)N)C(=O)N[C@H](Cc2ccccc2)C(=O)N2CCC[C@@H]2C(=O)N[C@@H](C(=O)NCC(=O)NCc2ccc(CC(=O)N[C@H](CC(C)C)C(=O)N3CCC[C@@H]3C(=O)N[C@H](CCCNC(=N)N)C(=O)N[C@@H](C(=O)NCC(=O)NCc3ccc(CC(N)=O)cc3)[C@H](C)O)cc2)C(C)C)cc1 [ASGPR-9-14] (5FAM-[dL][dP][dE][dS]F[X1]G[dV][dP][dR]A[X1]G[dP][dR][dS]F[X1][dP][dR][dH]GL[X1][dR][dF][dP][dV]G[X1][dL][dP][dR][dT]G-{NHCH2C6H4(4-CH2CONH2)}) as the compound, how does the Kd read?
Answer: Its Kd is 20 nM.
